Laboratory results: ChEMBL document CHEMBL1201862, “PubChem BioAssay data set” (2004)
The source made the active and inactive calls.

Assays:
[1] = inhibitors of HIV Env-driven cell fusion, dose response, cherry-pick (AID 652057); format: functional, cell-based
[2] = CEM21 lymphoblast cell cytotoxicity, dose response, cytotoxicity control for viral fusion inhibitor project, CellTiter-Glo luminescence, cherry-picked (AID 652042); format: functional, cell-based;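 also: potency for signal decrease meaning cytotoxicity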
Nonstructural protein 1 = Nonstructural protein 1 (Influenza A virus, UniProt Q194T2); format: functional, Influenza A virus (A/California/07/2009(H1N1))
Sequence of Nonstructural protein 1 (Q194T2 whole entry): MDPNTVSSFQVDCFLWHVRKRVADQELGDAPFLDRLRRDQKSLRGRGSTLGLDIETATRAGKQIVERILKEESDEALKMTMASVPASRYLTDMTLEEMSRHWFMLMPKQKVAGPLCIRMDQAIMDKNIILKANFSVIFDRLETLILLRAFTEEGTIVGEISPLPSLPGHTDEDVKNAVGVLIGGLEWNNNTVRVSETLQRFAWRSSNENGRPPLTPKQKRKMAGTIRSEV

[3] = molecular target: T1, Microphthalmia-associated transcription factor (Homo sapiens, UniProt O75030); assay: TRPM1 promoter luciferase signal decrease, dose response, MITF inhibitor project, cell-based, SK-MEL-5, cherry-picked, set 3 (AID 493073); format: functional
T1 sequence (O75030 whole entry): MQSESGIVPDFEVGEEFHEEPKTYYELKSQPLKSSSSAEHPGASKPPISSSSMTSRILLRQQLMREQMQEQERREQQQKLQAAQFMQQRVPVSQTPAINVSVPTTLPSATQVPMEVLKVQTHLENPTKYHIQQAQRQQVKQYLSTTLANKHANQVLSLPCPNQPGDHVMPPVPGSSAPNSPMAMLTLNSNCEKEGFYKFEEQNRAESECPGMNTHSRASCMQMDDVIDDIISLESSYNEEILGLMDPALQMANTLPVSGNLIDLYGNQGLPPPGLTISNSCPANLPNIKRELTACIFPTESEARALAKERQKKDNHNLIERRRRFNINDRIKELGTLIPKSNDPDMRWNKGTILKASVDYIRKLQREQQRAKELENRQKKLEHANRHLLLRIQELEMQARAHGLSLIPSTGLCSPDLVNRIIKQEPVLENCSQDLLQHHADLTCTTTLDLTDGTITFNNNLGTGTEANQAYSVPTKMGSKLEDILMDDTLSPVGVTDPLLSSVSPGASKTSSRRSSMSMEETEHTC

Paired box protein Pax-8 = Paired box protein Pax-8 (Homo sapiens, UniProt Q06710); assay: inhibitors of PAX8-driven TPO luciferase reporter, dose response, RMG-I cells, cherry-pick (AID 687027); format: functional, cell-based;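 also: luciferase reporter driven by Pax8 target thyroperoxidase promoter measured by SteadyGlo luminescence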
Sequence of Paired box protein Pax-8 (Q06710 whole entry): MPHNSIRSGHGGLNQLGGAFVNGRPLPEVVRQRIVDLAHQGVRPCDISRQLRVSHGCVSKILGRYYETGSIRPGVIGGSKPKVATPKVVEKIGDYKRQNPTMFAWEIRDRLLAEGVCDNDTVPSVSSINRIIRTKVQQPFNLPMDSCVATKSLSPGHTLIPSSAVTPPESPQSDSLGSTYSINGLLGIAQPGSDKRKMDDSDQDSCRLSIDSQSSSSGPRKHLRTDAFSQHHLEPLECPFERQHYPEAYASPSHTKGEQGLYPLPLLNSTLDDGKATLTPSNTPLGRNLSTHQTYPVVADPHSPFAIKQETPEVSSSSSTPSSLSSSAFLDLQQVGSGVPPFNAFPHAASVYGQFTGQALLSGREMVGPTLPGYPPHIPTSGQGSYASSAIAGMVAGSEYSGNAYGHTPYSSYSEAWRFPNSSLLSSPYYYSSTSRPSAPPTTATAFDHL

[4] = non-specific cell cytotoxicity, dose response, cytotoxicity control for PAX8 inhibitor project, plate reader, dry powder samples (AID 743021); format: functional, cell-based
[5] = ADAM10 inhibitors, peptide cleavage, dose response, biochemical, QFRET (AID 743254);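 also: ADAM10 enzyme with the DM2 quenched FRET peptide as substrate; EDANS fluorescence gain as the protease cuts the substrate; inhibitor potency against ADAM10 proteolytic activity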
[6] = molecular target: T2, Disintegrin and metalloproteinase domain-containing protein 17 (Homo sapiens, UniProt P78536); assay: ADAM17 protease inhibitors, dose response, counter-screen for ADAM10 exosite inhibitor project, biochemical, quenched FRET substrate (AID 743253)
T2 sequence (P78536 whole entry, the tested form may be a part): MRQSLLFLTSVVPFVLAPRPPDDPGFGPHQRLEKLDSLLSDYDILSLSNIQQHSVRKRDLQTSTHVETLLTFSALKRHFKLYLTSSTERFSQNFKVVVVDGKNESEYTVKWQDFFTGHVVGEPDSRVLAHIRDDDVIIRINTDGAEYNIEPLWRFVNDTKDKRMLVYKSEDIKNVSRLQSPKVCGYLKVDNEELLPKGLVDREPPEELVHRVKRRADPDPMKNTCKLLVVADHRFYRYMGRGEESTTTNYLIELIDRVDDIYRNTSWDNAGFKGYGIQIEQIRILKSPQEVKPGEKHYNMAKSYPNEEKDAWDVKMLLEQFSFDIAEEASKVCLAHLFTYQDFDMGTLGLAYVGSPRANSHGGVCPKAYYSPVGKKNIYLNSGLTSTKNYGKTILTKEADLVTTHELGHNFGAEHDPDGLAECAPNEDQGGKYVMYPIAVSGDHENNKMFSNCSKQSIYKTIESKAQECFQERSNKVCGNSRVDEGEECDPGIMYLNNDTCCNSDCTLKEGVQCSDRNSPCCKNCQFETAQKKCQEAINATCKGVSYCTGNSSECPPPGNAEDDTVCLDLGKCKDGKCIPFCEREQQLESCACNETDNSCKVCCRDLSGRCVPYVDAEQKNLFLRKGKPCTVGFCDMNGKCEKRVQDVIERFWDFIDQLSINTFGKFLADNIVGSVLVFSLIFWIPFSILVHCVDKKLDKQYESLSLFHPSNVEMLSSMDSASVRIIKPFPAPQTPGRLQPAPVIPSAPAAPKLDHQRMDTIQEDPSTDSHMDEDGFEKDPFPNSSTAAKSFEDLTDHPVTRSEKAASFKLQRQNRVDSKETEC

Mucolipin-3 = molecular target: T3, Mucolipin-3 (Homo sapiens, UniProt Q8TDD5); assay: Dose response cell-based high-throughput screening assay for agonists of the transient receptor potential channel ML3 (TRPML3). [Related pubchem assays: 1526, 1424, 1448 ]; format: functional
T3 sequence (Q8TDD5 whole entry): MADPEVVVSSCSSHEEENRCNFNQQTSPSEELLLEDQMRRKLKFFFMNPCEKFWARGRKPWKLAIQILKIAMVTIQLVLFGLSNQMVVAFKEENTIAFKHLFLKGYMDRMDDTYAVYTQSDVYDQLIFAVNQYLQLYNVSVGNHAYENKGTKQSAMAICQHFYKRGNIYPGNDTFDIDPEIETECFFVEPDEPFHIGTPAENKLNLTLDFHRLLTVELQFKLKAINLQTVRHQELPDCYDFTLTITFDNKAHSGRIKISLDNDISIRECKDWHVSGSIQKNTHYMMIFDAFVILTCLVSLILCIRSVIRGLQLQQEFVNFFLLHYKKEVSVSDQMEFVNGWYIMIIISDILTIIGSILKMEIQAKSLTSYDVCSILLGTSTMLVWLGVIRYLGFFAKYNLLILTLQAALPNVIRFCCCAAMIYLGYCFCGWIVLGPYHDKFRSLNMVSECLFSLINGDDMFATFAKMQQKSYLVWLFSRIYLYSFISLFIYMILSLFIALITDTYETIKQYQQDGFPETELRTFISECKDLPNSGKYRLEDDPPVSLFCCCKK

Ion channel NompC = Ion channel NompC (Danio rerio, UniProt Q7T1G6); assay: Fluorescence counterscreen assay for TRPML3 agonists: dose response cell-based high-throughput screening assay to identify agonists of the transient receptor potential channel N1 (TRPN1). [Related pubchem assays: 1526, 1424, 1448 ]; format: functional
Sequence of Ion channel NompC (Q7T1G6 whole entry, the tested form may be a part): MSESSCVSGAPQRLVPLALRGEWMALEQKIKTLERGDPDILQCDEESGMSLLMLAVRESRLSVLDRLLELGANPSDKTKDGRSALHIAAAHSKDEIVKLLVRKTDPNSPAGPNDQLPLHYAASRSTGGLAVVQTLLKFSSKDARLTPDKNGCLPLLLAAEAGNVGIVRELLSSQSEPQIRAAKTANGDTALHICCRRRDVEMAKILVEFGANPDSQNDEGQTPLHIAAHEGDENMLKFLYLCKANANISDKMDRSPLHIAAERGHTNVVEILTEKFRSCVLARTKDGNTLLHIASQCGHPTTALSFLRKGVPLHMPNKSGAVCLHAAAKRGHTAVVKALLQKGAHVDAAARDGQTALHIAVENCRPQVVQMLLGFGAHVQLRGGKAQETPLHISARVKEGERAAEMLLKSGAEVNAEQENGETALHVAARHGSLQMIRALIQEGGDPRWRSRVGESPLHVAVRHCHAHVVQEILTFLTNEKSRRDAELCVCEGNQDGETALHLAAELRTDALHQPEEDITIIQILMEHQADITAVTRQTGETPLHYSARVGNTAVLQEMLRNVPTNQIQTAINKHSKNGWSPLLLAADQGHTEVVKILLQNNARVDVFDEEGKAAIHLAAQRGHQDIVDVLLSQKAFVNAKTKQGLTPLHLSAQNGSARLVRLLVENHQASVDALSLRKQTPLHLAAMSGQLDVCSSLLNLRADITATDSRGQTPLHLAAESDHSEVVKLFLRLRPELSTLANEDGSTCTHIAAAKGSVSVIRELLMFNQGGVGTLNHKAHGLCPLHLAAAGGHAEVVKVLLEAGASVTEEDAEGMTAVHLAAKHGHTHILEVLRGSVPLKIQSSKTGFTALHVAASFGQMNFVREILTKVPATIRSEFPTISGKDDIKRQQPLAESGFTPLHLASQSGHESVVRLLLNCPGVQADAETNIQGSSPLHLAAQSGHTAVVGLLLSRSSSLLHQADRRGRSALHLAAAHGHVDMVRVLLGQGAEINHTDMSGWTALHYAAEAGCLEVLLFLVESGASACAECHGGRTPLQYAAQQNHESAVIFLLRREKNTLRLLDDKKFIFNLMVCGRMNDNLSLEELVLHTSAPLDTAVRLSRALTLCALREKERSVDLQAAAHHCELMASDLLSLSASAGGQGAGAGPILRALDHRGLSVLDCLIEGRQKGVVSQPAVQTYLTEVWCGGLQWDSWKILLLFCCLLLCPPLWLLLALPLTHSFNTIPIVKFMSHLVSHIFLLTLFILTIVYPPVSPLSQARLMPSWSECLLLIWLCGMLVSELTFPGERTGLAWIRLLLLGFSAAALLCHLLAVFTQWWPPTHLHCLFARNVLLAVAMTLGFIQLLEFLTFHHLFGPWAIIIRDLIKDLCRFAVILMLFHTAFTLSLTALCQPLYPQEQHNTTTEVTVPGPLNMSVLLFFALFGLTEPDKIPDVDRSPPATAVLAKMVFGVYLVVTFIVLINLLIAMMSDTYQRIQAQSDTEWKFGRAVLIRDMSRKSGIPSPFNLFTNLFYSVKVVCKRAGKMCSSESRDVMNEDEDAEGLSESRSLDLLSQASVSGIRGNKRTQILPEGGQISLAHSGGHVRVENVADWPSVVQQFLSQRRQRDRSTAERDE

[7] = molecular target: T2, Disintegrin and metalloproteinase domain-containing protein 17; assay: exosite inhibitors of ADAM17, dose response, biochemical (AID 743260)
[8] = molecular target: T4, Carboxy-terminal domain RNA polymerase II polypeptide A small phosphatase 1 (Homo sapiens, UniProt Q9GZU7); assay: inhibitors of CTDSP1, concentration-response testing, biochemical assay, absorbance-based, actives from ultra-high-throughput screening (AID 540297); format: functional
T4 sequence (Q9GZU7 whole entry): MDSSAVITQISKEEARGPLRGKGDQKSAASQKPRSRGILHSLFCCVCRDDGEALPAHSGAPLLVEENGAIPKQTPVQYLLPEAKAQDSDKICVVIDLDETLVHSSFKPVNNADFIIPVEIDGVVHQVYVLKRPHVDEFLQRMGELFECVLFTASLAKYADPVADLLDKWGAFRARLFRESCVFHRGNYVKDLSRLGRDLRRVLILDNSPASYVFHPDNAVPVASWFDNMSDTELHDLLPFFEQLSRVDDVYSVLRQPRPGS

[9] = molecular target: T5, Probable nicotinate-nucleotide adenylyltransferase (Staphylococcus aureus (strain N315), UniProt P65502); format: functional, Staphylococcus aureus subsp. aureus N315;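 as to IC50 Mean: confirmatory dose-response retesting of NadD inhibitor hits first found in an ultra-high-throughput screen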
T5 sequence (P65502 whole entry): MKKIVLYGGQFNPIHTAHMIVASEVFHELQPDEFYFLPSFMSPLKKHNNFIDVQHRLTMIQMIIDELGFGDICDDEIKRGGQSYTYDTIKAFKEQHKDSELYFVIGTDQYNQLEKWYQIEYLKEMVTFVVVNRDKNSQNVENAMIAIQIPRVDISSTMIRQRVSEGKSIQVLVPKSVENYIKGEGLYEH

[10] = molecular target: T5, Probable nicotinate-nucleotide adenylyltransferase; format: functional, Staphylococcus aureus subsp. aureus N315; details: read-out: IC50_Mean
[11] = molecular target: T6, RNA-binding protein pos-1 (Caenorhabditis elegans, UniProt G5EF15); assay: inhibitors of POS-1/mex-3 RNA binding, dose response, biochemical, fluorescence polarization (AID 1964);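 also: purified POS-1 fused to maltose binding protein made in E. coli; potency of compounds blocking POS-1 binding to fluorescent RNA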
T6 sequence (G5EF15 whole entry): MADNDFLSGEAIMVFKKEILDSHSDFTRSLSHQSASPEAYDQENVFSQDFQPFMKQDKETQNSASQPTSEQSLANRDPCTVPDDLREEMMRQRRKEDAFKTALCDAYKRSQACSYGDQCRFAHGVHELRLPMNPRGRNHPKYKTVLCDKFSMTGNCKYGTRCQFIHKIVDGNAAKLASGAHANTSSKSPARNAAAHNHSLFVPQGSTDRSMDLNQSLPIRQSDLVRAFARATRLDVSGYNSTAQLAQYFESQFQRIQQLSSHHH

[12] = molecular target: T7, Zinc finger protein mex-5 (Caenorhabditis elegans, UniProt Q9XUB2); assay: MEX-5/TCR-2 RNA interaction inhibitors, dose response, biochemical, C. elegans, fluorescence polarization (AID 1960)
T7 sequence (Q9XUB2 whole entry): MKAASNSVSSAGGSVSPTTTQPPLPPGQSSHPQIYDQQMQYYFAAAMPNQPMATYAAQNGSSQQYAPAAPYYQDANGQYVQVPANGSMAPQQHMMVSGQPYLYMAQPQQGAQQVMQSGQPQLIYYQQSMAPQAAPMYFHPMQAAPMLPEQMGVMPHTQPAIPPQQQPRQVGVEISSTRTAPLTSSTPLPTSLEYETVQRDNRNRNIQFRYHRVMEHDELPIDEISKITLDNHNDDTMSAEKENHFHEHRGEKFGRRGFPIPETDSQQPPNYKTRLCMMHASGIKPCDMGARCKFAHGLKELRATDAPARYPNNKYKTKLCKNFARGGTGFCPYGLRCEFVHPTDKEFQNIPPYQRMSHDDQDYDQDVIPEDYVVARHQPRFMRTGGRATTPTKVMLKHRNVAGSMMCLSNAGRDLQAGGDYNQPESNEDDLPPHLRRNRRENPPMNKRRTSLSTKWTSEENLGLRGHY

[13] = HepG2 cell cytotoxicity, dose response, cytotoxicity control, ATP luminescence, cherry-pick, activator set 2 (AID 1053143); format: functional, cell-based
[14] = molecular target: T8, Sentrin-specific protease 1 (Homo sapiens, UniProt Q9P0U3); assay: potency of human SENP1 inhibitors, dose response, biochemical, kinetic FRET (AID 651697); format: functional; details: read-out: IC50_Mean
T8 sequence (Q9P0U3 whole entry): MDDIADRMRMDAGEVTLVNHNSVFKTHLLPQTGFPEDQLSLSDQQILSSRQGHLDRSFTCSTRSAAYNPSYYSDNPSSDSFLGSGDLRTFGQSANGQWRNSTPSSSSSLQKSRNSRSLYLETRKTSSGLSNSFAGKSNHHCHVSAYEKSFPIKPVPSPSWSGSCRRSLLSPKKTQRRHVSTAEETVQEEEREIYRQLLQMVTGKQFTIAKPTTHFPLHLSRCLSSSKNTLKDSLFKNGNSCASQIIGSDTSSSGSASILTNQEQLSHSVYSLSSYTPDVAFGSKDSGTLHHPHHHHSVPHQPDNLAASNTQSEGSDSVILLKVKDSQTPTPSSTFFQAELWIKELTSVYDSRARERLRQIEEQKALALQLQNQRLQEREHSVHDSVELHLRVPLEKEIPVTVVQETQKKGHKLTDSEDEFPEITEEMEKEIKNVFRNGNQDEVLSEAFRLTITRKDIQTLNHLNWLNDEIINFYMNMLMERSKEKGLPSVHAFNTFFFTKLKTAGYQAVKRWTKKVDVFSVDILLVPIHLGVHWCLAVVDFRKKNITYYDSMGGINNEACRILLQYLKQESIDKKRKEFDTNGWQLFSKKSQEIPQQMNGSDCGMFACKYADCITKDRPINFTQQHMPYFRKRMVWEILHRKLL

[15] = molecular target: T8, Sentrin-specific protease 1; assay: Dose response confirmation of small molecule inhibitors of the catalytic domain of the SUMO protease, SENP1 in a FRET assay.; format: functional; details: read-out: IC50_Mean
[16] = molecular target: COUP transcription factor 2 (Homo sapiens, UniProt P24468); assay: Luminescence-based cell-based high throughput dose response assay to identify inhibitors of COUP-TFII (NR2F2).; format: functional;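 also: HEK293 cells transiently cotransfected with COUP-TFII expression vector and reporter; luciferase reporter luminescence driven by COUP-TFII from the pX2-168 reporter plasmid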
Sequence of COUP transcription factor 2 (P24468 whole entry): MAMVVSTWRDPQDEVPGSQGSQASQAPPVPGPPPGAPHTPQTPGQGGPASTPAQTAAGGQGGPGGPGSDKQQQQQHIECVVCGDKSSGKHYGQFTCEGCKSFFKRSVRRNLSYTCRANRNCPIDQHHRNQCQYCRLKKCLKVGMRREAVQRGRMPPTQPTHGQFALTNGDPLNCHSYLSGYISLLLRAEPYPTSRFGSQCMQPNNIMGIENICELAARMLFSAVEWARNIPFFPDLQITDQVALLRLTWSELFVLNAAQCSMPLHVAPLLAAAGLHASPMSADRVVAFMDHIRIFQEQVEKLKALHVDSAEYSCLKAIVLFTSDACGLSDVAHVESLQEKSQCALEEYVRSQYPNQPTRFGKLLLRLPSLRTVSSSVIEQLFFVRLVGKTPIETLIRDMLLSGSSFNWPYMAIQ

[17] = HeLa cell cytotoxicity, dose response, cytotoxicity control for MgcRacGAP inhibitor project (AID 624300); format: functional
[18] = molecular target: T9, Rac GTPase-activating protein 1 (Homo sapiens, UniProt Q9H0H5); assay: MgcRacGAP GTPase-activating activity inhibitors, confirmation, biochemical, ADP Hunter fluorescence, primary and confirmatory (AID 624330); format: functional
T9 sequence (Q9H0H5 whole entry): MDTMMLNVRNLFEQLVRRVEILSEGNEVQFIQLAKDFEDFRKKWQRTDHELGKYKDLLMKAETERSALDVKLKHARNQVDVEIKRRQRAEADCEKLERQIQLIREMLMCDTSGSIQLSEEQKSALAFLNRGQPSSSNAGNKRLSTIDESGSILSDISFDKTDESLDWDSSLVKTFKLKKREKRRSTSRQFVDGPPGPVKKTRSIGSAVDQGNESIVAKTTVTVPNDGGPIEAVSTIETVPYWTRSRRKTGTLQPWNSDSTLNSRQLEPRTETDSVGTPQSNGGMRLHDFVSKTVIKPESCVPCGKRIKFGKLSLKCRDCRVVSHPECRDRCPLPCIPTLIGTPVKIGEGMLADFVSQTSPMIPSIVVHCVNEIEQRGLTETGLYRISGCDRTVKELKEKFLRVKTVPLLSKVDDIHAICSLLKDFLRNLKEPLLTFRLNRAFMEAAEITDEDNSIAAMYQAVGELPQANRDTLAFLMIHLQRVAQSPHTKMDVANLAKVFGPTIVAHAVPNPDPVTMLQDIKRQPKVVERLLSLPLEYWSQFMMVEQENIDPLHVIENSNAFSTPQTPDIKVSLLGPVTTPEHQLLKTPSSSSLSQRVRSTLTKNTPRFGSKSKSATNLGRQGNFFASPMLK

[19] = inhibitors of PGC1a acetylation in cells, dose response, cell-based, cherry-picked samples (AID 720514); format: functional;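 also: potency may reflect raised or lowered acetylation signal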

C[C@@H]1CN([C@@H](C)CO)C(=O)c2cccc(NC(=O)c3cnccn3)c2O[C@H]1CN(C)Cc1ccc(Cl)c(Cl)c1
AC50 [1]: 53.4 µM (active) | AC50 [2]: 49.9 µM (active)

CCS(=O)(=O)c1ccc(N=Nc2ccc(O)c3ncccc23)c(OC)c1
IC50 (Nonstructural protein 1): 9.78 µM (active) | AC50 [3]: 9.23 µM (active) | AC50 (Paired box protein Pax-8): 1.19 µM (active) | AC50 [4]: 50.2 µM (active)

CCn1nc(C(=O)OC(C(=O)c2c[nH]c3ccccc23)c2ccccc2)c2ccccc2c1=O (centres undefined)
IC50 [5]: > 69.5 µM (inactive) | IC50 [6]: > 69.5 µM (inactive)

C=C(C)CN1CCN(S(=O)(=O)c2ccc(C)c(N(C)S(=O)(=O)c3ccc(C)cc3)c2C)CC1
EC50 (Mucolipin-3): 2.76 µM (active) | EC50 (Ion channel NompC): > 29.9 µM (not active) | IC50 [7]: > 69.5 µM (inactive)

COc1cccc(N2[C@@H](CC(=O)O)c3cc(C(F)(F)F)ccc3S2(=O)=O)c1
IC50 [8]: 5.53 µM (active) | IC50 [9]: 17.4 µM (active) | IC50 [10]: 31.7 µM (active)

OC(c1ccccc1)(c1nc(-c2ccc(Cl)cc2)cs1)C(F)(F)F (centres undefined)
IC50 [5]: 13.9 µM (inactive) | IC50 [6]: > 69.5 µM (inactive)

O=c1c2ccccc2oc2ccc(NCCCn3ccnc3)cc12
EC50 [11]: 55.2 µM (active) | EC50 [12]: 50.5 µM (active) | AC50 [13]: > 52 µM (inactive)

COc1ccc(O)c(/C=N/n2c(-c3ccco3)cs/c2=N\c2cccnc2)c1
IC50 [14]: 49.7 µM (inactive) | IC50 [15]: 23.1 µM (inactive)

CCc1cc(-c2nnn(CCC3COCCO3)c2CC)ccc1-c1cn(Cc2ccc3ccccc3c2)nn1 (centres undefined)
IC50 [16]: 10 µM (inactive)

COC(=O)C1=CC(C(=O)c2cccs2)=NN(c2ccc(OC)cc2)C1C(=O)OC (centres undefined)
IC50 [14]: 27.9 µM (inactive) | IC50 [15]: 34.5 µM (inactive)

CCOc1cc(C2NN=C(c3ccc(C)cc3)S2)ccc1O (centres undefined)
CC50 [17]: 100 µM (active) | IC50 [18]: 112 µM (active) | AC50 [13]: > 52 µM (inactive)

CCC(=O)N1CCN(c2ccc(Cl)cc2NC(=O)c2ccc([N+](=O)[O-])o2)CC1
AC50 [3]: 12.4 µM (active) | AC50 [19]: 29.4 µM (active)
